PubChem BioAssay (NCI)
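How tested: cells in 96-well plates exposed to compound for 48 hours at five concentrations. TGI denotes the concentration required for complete inhibition of growth.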

Columns and labels:
Assay in all cases: inhibition of tumour cell growth, NCI panel, 48 h
UACC-257 melanoma = system: UACC-257 melanoma
ACHN renal = system: ACHN renal
NCI-H460 lung = system: NCI-H460 lung
MOLT-4 leukemia = system: MOLT-4 leukemia
UO-31 renal = system: UO-31 renal
A549 NSCLC = system: A549 NSCLC
COLO 205 colon = system: COLO 205 colon
SK-MEL-5 melanoma = system: SK-MEL-5 melanoma
SF-295 CNS = system: SF-295 CNS
KM20L2 colon = system: KM20L2 colon
SK-MEL-28 melanoma = system: SK-MEL-28 melanoma
SN12C renal = system: SN12C renal
NCI-H226 lung = system: NCI-H226 lung
SF-268 CNS = system: SF-268 CNS
KM12 colon = system: KM12 colon
DMS 114 small cell lung = system: DMS 114 small cell lung
SF-539 CNS = system: SF-539 CNS
RPMI-8226 leukemia = system: RPMI-8226 leukemia
SNB-78 CNS = system: SNB-78 CNS
OVCAR-8 ovarian = system: OVCAR-8 ovarian
HCC-2998 colon = system: HCC-2998 colon
SNB-19 CNS = system: SNB-19 CNS
HCT-116 colon = system: HCT-116 colon
OVCAR-3 ovarian = system: OVCAR-3 ovarian
SNB-75 CNS = system: SNB-75 CNS
HOP-92 NSCLC = system: HOP-92 NSCLC
IGROV1 ovarian = system: IGROV1 ovarian
786-0 renal = system: 786-0 renal
EKVX NSCLC = system: EKVX NSCLC
DMS 273 small cell lung = system: DMS 273 small cell lung
HL-60(TB) leukemia = system: HL-60(TB) leukemia
M19-MEL melanoma = system: M19-MEL melanoma
DLD-1 colon = system: DLD-1 colon
HOP-62 NSCLC = system: HOP-62 NSCLC
SK-MEL-2 melanoma = system: SK-MEL-2 melanoma
UACC-62 melanoma = system: UACC-62 melanoma
HT29 colon = system: HT29 colon
K-562 leukemia = system: K-562 leukemia
M14 melanoma = system: M14 melanoma
HCT-15 colon = system: HCT-15 colon
OVCAR-4 ovarian = system: OVCAR-4 ovarian
OVCAR-5 ovarian = system: OVCAR-5 ovarian
TK-10 renal = system: TK-10 renal
NCI-H522 lung = system: NCI-H522 lung
CAKI-1 renal = system: CAKI-1 renal
U251 CNS = system: U251 CNS
A498 renal = system: A498 renal
SW-620 colon = system: SW-620 colon
SK-OV-3 ovarian = system: SK-OV-3 ovarian
MALME-3M melanoma = system: MALME-3M melanoma
LXFL 529 NSCLC = system: LXFL 529 NSCLC
LOX IMVI melanoma = system: LOX IMVI melanoma
HOP-18 NSCLC = system: HOP-18 NSCLC
NCI-H23 lung = system: NCI-H23 lung
CCRF-CEM leukemia = system: CCRF-CEM leukemia
SR leukemia = system: SR leukemia
XF 498 CNS = system: XF 498 CNS
RXF 393 renal = system: RXF 393 renal
RXF-631 renal = system: RXF-631 renal

Measured: TGI

O=C(Cc1nc2ccccc2s1)C(=O)Nc1ccc(Cl)cc1
not listed: CCRF-CEM leukemia | SR leukemia | XF 498 CNS | RXF 393 renal | RXF-631 renal
> 100 µM: all other assays above

CC1=CC=NN2C(=O)[C@H](C)C2C1 (some centres not stated)
not listed: CAKI-1 renal
> 100 µM: all other assays above

C/C(CN1C(=O)c2ccccc2C1=O)=N\NS(=O)(=O)c1cccc([N+](=O)[O-])c1
not listed: DMS 114 small cell lung | HOP-92 NSCLC | LOX IMVI melanoma | SR leukemia
> 100 µM: all other assays above
